Results published in patent US20230393140A1, “BINDING ASSAYS INVOLVING A PLURALITY OF SYNTHETIC COMPOUNDS, TARGETS, AND COUNTER TARGETS” (SRI International, priority 2020, published 2023).
Numbered stars: 1 amine (or outer) side, 2 acyl side, 3 side chain; on linkers, the order of the positions; unused ones are H or OH. Square brackets hold non-standard residues; d marks the D form. Peptide text beside a SMILES is read from it. * marks the point of attachment. 5FAM = O=C1OC2(c3ccc(O)cc3Oc3cc(O)ccc32)c2ccc(C(=O)*)cc21; NHCH2C6H4(4-CH2CONH2) = NC(=O)Cc1ccc(CN*)cc1; X1 = O=C(Cc1ccc(CN[*:1])cc1)[*:2]

Biological target: TNFα (Homo sapiens, UniProt P01375)
Assay: MST binding affinity of resynthesized NNP hits to TNFα
Set-up: purchased R&D Systems, Inc. 210-TA/CF
Details: read-out: KD (nM) [95% conf. int], NNP2 library hit, target TNFα, one-site binding model
Method: Hit binding affinity to various targets were determined using Microscale Thermophoresis (MST). MST experiments were performed on a Monolith NT.115pico (NanoTemper Technologies GmbH, Munich, Germany). Measurements were performed at room temperature, in triplicate with incubation periods of 15, 30 and 45 minutes. […] Targets were labeled using Nanotemper Monolith 2nd Generation Protein Labeling Kits. RED-MALEIMIDE (Maleimide-647-dye) labeling kit was used for K-Ras and RED-NHS (NHS-647-dye) labeling kit was used for IL-6, IL-6R, TNFα and ASGPR. The buffer for the ASGPR contained 20 mM HEPES pH 7.4, 150 mM NaCl, 10 mM MgCl2, 2 mM CaCl2, 0.05% Pluronic F-127, and 1 mM DTT; for IL-6 contained 20 mM HEPES pH 7.4, 150 mM KCl, 10 mM MgCl2, and 0.1% Pluronic F-127; for the soluble IL-6 receptor 20 mM HEPES pH 7.4, 150 mM NaCl, 10 mM MgCl2, and 0.05% Tween-20; for K-Ras 20 mM HEPES pH 7.4, 150 mM NaCl, 10 mM MgCl2, 0.05% Tween-20 and 1 mM DTT; for TNFα 10 mM HEPES pH 7.4, 150 mM NaCl, 10 mM MgCl2, 0.05% Polysorbate-20. Triplicate data was analyzed using MO.AffinityAnalysis software (NanoTemper Technologies GmbH).

Sequence of TNFα (P01375 77-233 limits assumed): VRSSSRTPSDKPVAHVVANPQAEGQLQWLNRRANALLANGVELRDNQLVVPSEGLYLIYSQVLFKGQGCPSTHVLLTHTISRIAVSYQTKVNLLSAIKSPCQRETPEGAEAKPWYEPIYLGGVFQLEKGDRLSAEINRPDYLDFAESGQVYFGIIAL

Compound	Kd [nM]
CC(C)C[C@H](NC(=O)[C@@H](CCCCN)NC(=O)[C@@H](CC(C)C)NC(=O)Cc1ccc(CNC(=O)[C@H](CC(C)C)NC(=O)[C@@H](CCCNC(=N)N)NC(=O)[C@@H](CC(C)C)NC(=O)Cc2ccc(CNC(=O)[C@H](CC(C)C)NC(=O)[C@@H](CC(C)C)NC(=O)[C@@H](Cc3ccc(O)cc3)NC(=O)c3ccc4c(c3)C(=O)OC43c4ccc(O)cc4Oc4cc(O)ccc43)cc2)cc1)C(=O)NCc1ccc(CC(=O)N[C@H](Cc2ccccc2)C(=O)N[C@H](CCCNC(=N)N)C(=O)N[C@@H](C)C(=O)NCc2ccc(CC(=O)N[C@H](C)C(=O)N[C@H](CCCCN)C(=O)N[C@@H](Cc3ccccc3)C(=O)NCc3ccc(CC(=O)N[C@H](Cc4ccccc4)C(=O)N[C@@H](C(=O)N[C@@H](C)C(=O)NCc4ccc(CC(=O)N5CCC[C@@H]5C(=O)N[C@@H](C(=O)NCC(=O)NCc5ccc(CC(=O)N[C@@H](C(=O)N[C@H](Cc6c[nH]cn6)C(=O)N[C@@H](CC(C)C)C(=O)NCc6ccc(CC(=O)N[C@@H](C(=O)N[C@H](CO)C(=O)N[C@H](C(=O)NCc7ccc(CC(N)=O)cc7)C(C)C)[C@H](C)O)cc6)[C@H](C)O)cc5)C(C)C)cc4)[C@H](C)O)cc3)cc2)cc1 [TNF-39-14] (5FAM-[dY][dL]L[X1][dL][dR]L[X1][dL][dK]L[X1][dF][dR]A[X1][dA][dK]F[X1][dF][dT]A[X1][dP][dV]G[X1][dT][dH]L[X1][dT][dS]V-{NHCH2C6H4(4-CH2CONH2)})	36
CC(C)C[C@H](NC(=O)[C@@H](CCCNC(=N)N)NC(=O)CNC(=O)Cc1ccc(CNC(=O)[C@H](CC(C)C)NC(=O)[C@H](NC(=O)[C@@H](CCCCN)NC(=O)c2ccc3c(c2)C(=O)OC32c3ccc(O)cc3Oc3cc(O)ccc32)C(C)C)cc1)C(=O)NCc1ccc(CC(=O)N[C@H](Cc2ccccc2)C(=O)N[C@H](CCC(=O)O)C(=O)N[C@H](C(=O)NCc2ccc(CC(=O)N[C@H](Cc3ccccc3)C(=O)N[C@H](CCCNC(=N)N)C(=O)N[C@@H](C)C(=O)NCc3ccc(CC(=O)N[C@H](Cc4c[nH]c5ccccc45)C(=O)N[C@H](CCCNC(=N)N)C(=O)N[C@H](C(=O)NCc4ccc(CC(=O)N[C@H](CCC(=O)O)C(=O)N[C@H](CCCNC(=N)N)C(=O)N[C@@H](CC(C)C)C(=O)NCc5ccc(CC(=O)N[C@H](Cc6c[nH]cn6)C(=O)N[C@H](CCC(=O)O)C(=O)N[C@@H](CC(C)C)C(=O)NCc6ccc(CC(=O)N[C@H](CCCCN)C(=O)N[C@H](Cc7ccccc7)C(=O)N[C@@H](Cc7ccccc7)C(=O)NCc7ccc(CC(=O)N[C@H](Cc8ccc(O)cc8)C(=O)N[C@H](CCCNC(=N)N)C(=O)N[C@@H](Cc8ccccc8)C(=O)NCc8ccc(CC(N)=O)cc8)cc7)cc6)cc5)cc4)C(C)C)cc3)cc2)C(C)C)cc1 [TNF-39-15] (5FAM-[dK][dV]L[X1]G[dR]L[X1][dF][dE]V[X1][dF][dR]A[X1][dW][dR]V[X1][dE][dR]L[X1][dH][dE]L[X1][dK][dF]F[X1][dY][dR]F-{NHCH2C6H4(4-CH2CONH2)})	46
CC(C)C[C@H](NC(=O)[C@@H](CCCCN)NC(=O)[C@@H](Cc1c[nH]c2ccccc12)NC(=O)Cc1ccc(CNC(=O)[C@@H](NC(=O)CNC(=O)[C@H]2CCCN2C(=O)Cc2ccc(CNC(=O)[C@H](CC(C)C)NC(=O)[C@@H](Cc3ccc(O)cc3)NC(=O)[C@@H](CCCNC(=N)N)NC(=O)Cc3ccc(CNC(=O)[C@H](Cc4ccccc4)NC(=O)[C@@H](CCCCN)NC(=O)[C@@H](C)NC(=O)Cc4ccc(CNC(=O)[C@H](C)NC(=O)[C@@H](CCCNC(=N)N)NC(=O)[C@@H](Cc5ccccc5)NC(=O)Cc5ccc(CNC(=O)[C@@H](NC(=O)[C@@H](CCC(=O)O)NC(=O)[C@@H](Cc6ccccc6)NC(=O)Cc6ccc(CNC(=O)[C@H](CC(C)C)NC(=O)[C@@H](CCCNC(=N)N)NC(=O)[C@@H](CC(C)C)NC(=O)Cc7ccc(CNC(=O)[C@H](Cc8ccccc8)NC(=O)[C@@H](CC(C)C)NC(=O)[C@H](NC(=O)c8ccc9c(c8)C(=O)OC98c9ccc(O)cc9Oc9cc(O)ccc98)[C@H](C)O)cc7)cc6)C(C)C)cc5)cc4)cc3)cc2)C(C)C)cc1)C(=O)NCc1ccc(CC(=O)N[C@H](Cc2ccc(O)cc2)C(=O)N[C@H](CCCNC(=N)N)C(=O)N[C@@H](Cc2ccccc2)C(=O)NCc2ccc(CC(N)=O)cc2)cc1 [TNF-39-3] (5FAM-[dT][dL]F[X1][dL][dR]L[X1][dF][dE]V[X1][dF][dR]A[X1][dA][dK]F[X1][dR][dY]L[X1][dP]GV[X1][dW][dK]L[X1][dY][dR]F-{NHCH2C6H4(4-CH2CONH2)})	130
CC(C)C[C@H](NC(=O)[C@@H](CCCNC(=N)N)NC(=O)[C@@H](CCC(=O)O)NC(=O)Cc1ccc(CNC(=O)[C@H](Cc2ccccc2)NC(=O)CNC(=O)[C@@H](C)NC(=O)Cc2ccc(CNC(=O)[C@@H](NC(=O)[C@@H](CCCNC(=N)N)NC(=O)[C@H]3CCCN3C(=O)Cc3ccc(CNC(=O)[C@@H](NC(=O)[C@@H](CCC(=O)O)NC(=O)[C@@H](Cc4ccccc4)NC(=O)Cc4ccc(CNC(=O)[C@H](Cc5ccccc5)NC(=O)[C@@H](C)NC(=O)[C@@H](C)NC(=O)Cc5ccc(CNC(=O)[C@H](CC(C)C)NC(=O)[C@H](NC(=O)[C@@H](CCCCN)NC(=O)c6ccc7c(c6)C(=O)OC76c7ccc(O)cc7Oc7cc(O)ccc76)C(C)C)cc5)cc4)C(C)C)cc3)C(C)C)cc2)cc1)C(=O)NCc1ccc(CC(=O)N2CCC[C@@H]2C(=O)N[C@@H](C(=O)NCC(=O)NCc2ccc(CC(=O)N[C@H](Cc3c[nH]c4ccccc34)C(=O)N[C@H](CCCCN)C(=O)N[C@@H](CC(C)C)C(=O)NCc3ccc(CC(=O)N4CCC[C@@H]4C(=O)N[C@H](C)C(=O)N[C@@H](C)C(=O)NCc4ccc(CC(N)=O)cc4)cc3)cc2)C(C)C)cc1 [TNF-39-10] (5FAM-[dK][dV]L[X1][dA][dA]F[X1][dF][dE]V[X1][dP][dR]V[X1][dA]GF[X1][dE][dR]L[X1][dP][dV]G[X1][dW][dK]L[X1][dP][dA]A-{NHCH2C6H4(4-CH2CONH2)})	38
CC(C)C[C@H](NC(=O)[C@@H](CCCCN)NC(=O)[C@@H](Cc1c[nH]c2ccccc12)NC(=O)Cc1ccc(CNC(=O)CNC(=O)[C@H](NC(=O)[C@H]2CCCN2C(=O)Cc2ccc(CNC(=O)[C@H](Cc3ccccc3)NC(=O)[C@@H](CCCNC(=N)N)NC(=O)[C@@H](CC(N)=O)NC(=O)Cc3ccc(CNC(=O)[C@H](Cc4ccccc4)NC(=O)[C@@H](CCCCN)NC(=O)[C@@H](C)NC(=O)Cc4ccc(CNC(=O)[C@H](C)NC(=O)[C@@H](CCCNC(=N)N)NC(=O)[C@@H](Cc5ccccc5)NC(=O)Cc5ccc(CNC(=O)[C@@H](NC(=O)[C@@H](CCC(=O)O)NC(=O)[C@@H](Cc6ccccc6)NC(=O)Cc6ccc(CNC(=O)[C@H](CC(C)C)NC(=O)[C@@H](CCCNC(=N)N)NC(=O)[C@@H](CC(C)C)NC(=O)Cc7ccc(CNC(=O)[C@H](CC(C)C)NC(=O)[C@H](NC(=O)[C@@H](CCCCN)NC(=O)c8ccc9c(c8)C(=O)OC98c9ccc(O)cc9Oc9cc(O)ccc98)C(C)C)cc7)cc6)C(C)C)cc5)cc4)cc3)cc2)C(C)C)cc1)C(=O)NCc1ccc(CC(=O)N[C@H](Cc2ccc(O)cc2)C(=O)N[C@H](CCCNC(=N)N)C(=O)N[C@@H](Cc2ccccc2)C(=O)NCc2ccc(CC(N)=O)cc2)cc1 [TNF-39-11] (5FAM-[dK][dV]L[X1][dL][dR]L[X1][dF][dE]V[X1][dF][dR]A[X1][dA][dK]F[X1][dN][dR]F[X1][dP][dV]G[X1][dW][dK]L[X1][dY][dR]F-{NHCH2C6H4(4-CH2CONH2)})	86
